Assay [1] concerns the target PIK3CA (human) (UniProt P42336). In words: Enzyme Assay.
Assay [2] has the same target. In words: Assessment of Cell Proliferation in MDA-MB-361.1 Cells. Conditions: mda-mb-361.
Assay [3] has the same target. As to the kind of experiment: Assessment of Cell Proliferation in PC3 Cells. Conditions: pc-3.

PIK3CA (human), sequence (P42336 whole entry, looked up): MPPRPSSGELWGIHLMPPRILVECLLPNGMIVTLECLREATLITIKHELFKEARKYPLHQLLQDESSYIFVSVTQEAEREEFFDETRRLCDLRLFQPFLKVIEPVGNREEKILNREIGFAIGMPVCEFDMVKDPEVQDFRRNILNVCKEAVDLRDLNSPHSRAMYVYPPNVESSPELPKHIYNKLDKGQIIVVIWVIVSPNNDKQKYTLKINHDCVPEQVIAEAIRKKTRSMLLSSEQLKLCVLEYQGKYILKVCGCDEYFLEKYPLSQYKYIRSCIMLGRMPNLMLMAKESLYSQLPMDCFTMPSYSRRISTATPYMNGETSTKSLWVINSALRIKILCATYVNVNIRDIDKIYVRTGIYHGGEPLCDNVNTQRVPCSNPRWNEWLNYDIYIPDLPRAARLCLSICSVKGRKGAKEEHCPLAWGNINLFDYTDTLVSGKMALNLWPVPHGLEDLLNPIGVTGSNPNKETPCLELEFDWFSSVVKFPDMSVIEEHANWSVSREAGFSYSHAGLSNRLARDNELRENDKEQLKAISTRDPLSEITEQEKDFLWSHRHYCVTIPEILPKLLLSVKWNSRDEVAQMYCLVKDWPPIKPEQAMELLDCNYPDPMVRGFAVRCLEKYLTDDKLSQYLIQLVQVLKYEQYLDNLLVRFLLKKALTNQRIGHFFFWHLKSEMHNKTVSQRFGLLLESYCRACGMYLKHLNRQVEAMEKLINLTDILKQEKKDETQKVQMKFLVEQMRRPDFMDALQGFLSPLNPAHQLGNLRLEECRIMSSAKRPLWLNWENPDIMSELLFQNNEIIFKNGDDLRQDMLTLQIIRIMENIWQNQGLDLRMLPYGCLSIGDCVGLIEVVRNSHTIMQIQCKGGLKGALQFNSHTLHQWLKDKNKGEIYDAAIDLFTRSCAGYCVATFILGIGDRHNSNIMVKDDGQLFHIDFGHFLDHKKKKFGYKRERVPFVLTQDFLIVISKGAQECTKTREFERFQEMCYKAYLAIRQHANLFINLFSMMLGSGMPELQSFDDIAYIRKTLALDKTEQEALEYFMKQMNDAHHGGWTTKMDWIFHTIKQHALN

For the molecule `Nc1ncc(-c2nc(N3CCOCC3)c3nc4n(c3n2)CCOC42COC2)cn1`, the IC50 against PIK3CA (human) [1] was found to be 0.00245 µM. This counts as single-digit nanomolar. On the same count and under the same terms, the figure for `CC1(C)OCCn2c1nc1c(N3CCOCC3)nc(-c3ccnc(N)c3)nc12` is 0.685 µM; for `CC1NC(=O)Cn2c1nc1c(N3CCOCC3)nc(-c3cnc(N)nc3)nc12` (centres undefined) it is 0.00428 µM; for `CC[C@@]1(C)OCCn2c1nc1c(N3CCOCC3)nc(-c3cnc(N)nc3)nc12` it is 0.00596 µM. At PIK3CA (human) [1], `CC1(C)OCCn2c1nc1c(N3CCOCC3)nc(-c3ccc(N)nc3)nc12` registered an IC50 of 0.0186 µM. Take `CC1c2nc3c(N4CCOCC4)nc(-c4cnc(N)nc4)nc3n2CCN1C` (centres undefined): the IC50 at PIK3CA (human) [1] was found to be 0.00689 µM. The EC50 on PIK3CA (human) [2] was 0.889 µM; at PIK3CA (human) [3], 1.9 µM. The molecule `Nc1ncc(-c2nc(N3CCOCC3)c3nc4n(c3n2)CCC4)cn1` gave an IC50 at PIK3CA (human) [1] of 0.00826 µM. In turn, `CC1(C)OCCn2c1nc1c(N3CCOCC3)nc(-c3cccc(O)c3)nc12` returned an IC50 against PIK3CA (human) [1] of 0.00458 µM. With `CC1(C)OCCc2c1sc1c(N3CCOCC3)nc(-c3cnc(N)nc3)nc21`, the IC50 on PIK3CA (human) [1] is 0.001 µM. Also, the EC50 came to 0.237 µM at PIK3CA (human) [2] and 0.215 µM at PIK3CA (human) [3]. In turn, `CC1(C)OCCn2c1nc1c(N3C[C@@H]4C[C@H]3CO4)nc(-c3cnc(N)nc3)nc12` yielded an IC50 on PIK3CA (human) [1] of 0.394 µM. The values for the EC50 at PIK3CA (human) [2] and on PIK3CA (human) [3] were 3.4 µM and 3.6 µM, respectively. Taken in the same sequence, the figures for `C[C@@H]1CN(c2nc(-c3cnc(N)nc3)nc3c2nc2n3CCOC2(C)C)C[C@H](C)O1` were 0.014 µM, 3.1 µM and 3.8 µM. With `Nc1ncc(-c2nc(N3CCOCC3)c3nc4n(c3n2)CCOC4)cn1`, the IC50 against PIK3CA (human) [1] was 0.00432 µM. In the case of `CC1(C)OCCn2c1nc1c(N3CCOCC3)nc(-c3cncc(C(N)=O)c3)nc12`, at PIK3CA (human) [1], the IC50 came out at 0.0352 µM. At PIK3CA (human) [1], `Nc1cc(C(F)(F)F)c(-c2nc(N3CCOCC3)c3nc4n(c3n2)CCOC4)cn1` registered an IC50 of 0.0112 µM. Same read-out and setting: in the case of `CC(=O)Nc1ncc(-c2nc(N3CCOCC3)c3nc4n(c3n2)CCOC4(C)C)cn1` it was 0.242 µM.

In the case of `CC1(C)OCCn2c1nc1c(N3CCOCC3)nc(-c3ccc(N)cn3)nc12`, the EC50 on PIK3CA (human) [2] and on PIK3CA (human) [3] was 10 µM in each case.

Consider `CN1CCn2c(nc3c(N4CCOCC4)nc(-c4cnc(N)nc4)nc32)C1=O`, for which the IC50 against PIK3CA (human) [1] was found to be 0.0215 µM. As for `Nc1ncc(-c2nc(N3CCOCC3)c3c(n2)N2CCC[C@H]2CO3)cn1`, the IC50 against PIK3CA (human) [1] is 0.0779 µM. For the same molecule, the figures for the EC50 on PIK3CA (human) [2] and on PIK3CA (human) [3] were 3.2 µM and 2 µM, respectively. With `Nc1ncc(-c2nc(N3CCOCC3)c3nc4n(c3n2)CCO[C@@H]4C(F)(F)F)cn1`, at PIK3CA (human) [1], the IC50 was found to be 0.00345 µM. The same measure, in the same setting: the figure for `Nc1ncc(-c2nc(N3CCOCC3)c3nc4n(c3n2)CCC2(CC2)O4)cn1` is 0.00137 µM. On the same count and under the same terms, in the case of `CC(=O)Nc1ccc(-c2nc(N3CCOCC3)c3nc4n(c3n2)CCOC4(C)C)cn1` it was 0.049 µM; in that of `CNC(=O)Nc1ccc(-c2nc(N3CCOCC3)c3nc4n(c3n2)CCOC4(C)C)cc1`, 0.00671 µM. In the case of `FC(F)(F)C1OCCn2c1nc1c(N3CCOCC3)nc(-c3cccc4[nH]ncc34)nc12` (centres undefined), the IC50 on PIK3CA (human) [1] is 0.0452 µM. The values for the EC50 at PIK3CA (human) [2] and at PIK3CA (human) [3] were 4.4 µM and 6.9 µM, respectively. In the same order, the values of `CC1(C)OCCn2c1cc1c(N3CCOCC3)nc(-c3cnc(N)nc3)nc12` are 0.000831 µM, 0.094 µM and 0.185 µM. In the same order, the values of `CC(C)NC(=O)Nc1ccc(-c2nc(N3CCOCC3)c3nc4n(c3n2)CCOC4(C)C)cc1` are 0.337 µM, 1.2 µM and 1.3 µM. At PIK3CA (human) [1], `Nc1ccc(-c2nc(N3CCOCC3)c3nc4n(c3n2)CCOC4C(F)(F)F)cn1` (centres undefined) registered an IC50 of 0.0452 µM. Same read-out and setting: in the case of `CC1(C)OCCn2c1nc1c(N3CCOCC3)nc(-c3ccc(N)cc3)nc12` it was 0.541 µM; in that of `CCNC(=O)Nc1ccc(-c2nc(N3CCOCC3)c3nc4n(c3n2)CCOC4(C)C)cc1`, 0.0417 µM; in that of `CC1=COC(C)(C)c2nc3c(N4CCOCC4)nc(-c4cnc(N)nc4)nc3n21`, 0.00473 µM.

With `CC1(C)OCCn2c1nc1c(N3CCOCC3)nc(-c3cccc4[nH]ncc34)nc12`, the IC50 on PIK3CA (human) [1] was 0.0198 µM. Compared with the last molecule, the IC50 is about 4.2-fold higher. In the case of `CC1(C)OCCn2c1nc1c(N3CCOCC3)nc(-c3cn[nH]c3)nc12`, on PIK3CA (human) [1], the IC50 was 0.382 µM. Take `Oc1cccc(-c2nc(N3CCOCC3)c3nc4n(c3n2)CCOC4C(F)(F)F)c1` (centres undefined): the IC50 against PIK3CA (human) [1] is 0.0797 µM. The figures for the EC50 at PIK3CA (human) [2] and at PIK3CA (human) [3] were 0.92 µM and 1.1 µM, respectively.

As for `CC[C@]1(C)OCCn2c1nc1c(N3CCOCC3)nc(-c3cnc(N)nc3)nc12`, the IC50 at PIK3CA (human) [1] is 0.00311 µM. Same read-out and setting: the figure for `CC1(C)OCCn2c1nc1c(N3CCOCC3)nc(-c3cnc(N)cc3C(F)(F)F)nc12` is 0.00389 µM. In the case of `CN(C)c1cnc(-c2nc(N3CCOCC3)c3nc4n(c3n2)CCOC4(C)C)cn1`, the EC50 at PIK3CA (human) [2] and on PIK3CA (human) [3] was 10 µM in each case. Consider `CC1(C)OCCn2c1nc1c(N3CCOCC3)nc(-c3cnc4[nH]ccc4c3)nc12`, for which, at PIK3CA (human) [1], the IC50 was 0.014 µM.

`CC1(C)CCn2c(nc3c(N4CCOCC4)nc(-c4cnc(N)nc4)nc32)O1` showed an IC50 against PIK3CA (human) [1] of 0.00509 µM. Moreover, the figures for the EC50 at PIK3CA (human) [2] and on PIK3CA (human) [3] were 0.958 µM and 1.8 µM, respectively. Consider `CC(C)Cn1cc(-c2nc(N3CCOCC3)c3nc4n(c3n2)CCOC4(C)C)cn1`, for which the EC50 at PIK3CA (human) [2] and at PIK3CA (human) [3] was 10 µM throughout. In turn, `Nc1ncc(-c2nc(N3CCOCC3)c3nc4n(c3n2)CCO[C@H]4C(F)(F)F)cn1` gave an IC50 against PIK3CA (human) [1] of 0.00357 µM. The figures for the EC50 at PIK3CA (human) [2] and at PIK3CA (human) [3] were 0.424 µM and 0.697 µM, respectively. With `Nc1ccc(-c2nc(N3CCOCC3)c3nc4n(c3n2)CCCC4)cn1`, the IC50 at PIK3CA (human) [1] came out at 0.0507 µM. In the case of `Nc1ncc(-c2nc(N3CCOCC3)c3nc4n(c3n2)CCCC4)cn1`, the IC50 against PIK3CA (human) [1] is 0.00388 µM.

`CC1(C)CN(c2nc(-c3cnc(N)nc3)nc3c2nc2n3CCOC2(C)C)CCO1` came in with an IC50 against PIK3CA (human) [1] of 0.201 µM. Also, the EC50 on PIK3CA (human) [2] was determined as 1.5 µM; at PIK3CA (human) [3], 1.4 µM.

In turn, `CC1(C)OCCn2c1nc1c(N3CCOCC3)nc(-c3ccccc3NS(C)(=O)=O)nc12` yielded an IC50 at PIK3CA (human) [1] of 0.638 µM. At PIK3CA (human) [1], `CCNC(=O)Nc1ccc(-c2nc(N3CCOCC3)c3c(n2)C2(C)CCOC2N3C)cc1` (centres undefined) yielded an IC50 of 2.1 µM. Besides, the EC50 on PIK3CA (human) [2] was 0.315 µM; on PIK3CA (human) [3], 0.208 µM. For the molecule `Nc1ncc(-c2nc(N3CCOCC3)c3nc4n(c3n2)CCCO4)cn1`, the IC50 against PIK3CA (human) [1] came to 0.00684 µM.

These data come from the Kinase Knowledgebase extract (Sharma et al. 2016).
